Results from patent publication US20230108906A1, “SUBSTITUTED BICYCLIC AND TRICYCLIC UREAS AND AMIDES, ANALOGUES THEREOF, AND METHODS USING SAME” (Arbutus Biopharma Corporation, priority 2019, published 2023).
pEC50: −log10 of the molar value. Like-named read-outs stand apart in the source and are kept apart here.

Test system: HBV rcDNA in HepDE19 cells
Experiment: HepDE19 assay with bDNA quantitation of HBV rcDNA
Assay type: cell-based, hepatitis B virus (HBV)
Conditions: Hepatitis B virus, HepDE19, 168 h; for pEC50: inhibition of rcDNA formation in HepDE19 cells (HepG2 derived), Tet-free medium, 7 day incubation, Quantigene 2.0 bDNA readout, top concentration 25 μM, read-out: DE-19bDNA EC50
In short: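 Cytotoxicity run on replicate plates (5,000 cells/well, 4 days, ATP luminescence, CC50), while antiviral plates (50,000 cells/well) received compound for 7 days after tetracycline withdrawal to induce HBV replication. Top dose 25 μM, 8 points, 0.5% DMSO; rcDNA by branched-DNA assay, % inhibition fitted (4-parameter) for EC50 and EC90.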

CN(C(=O)N1Cc2ccc(C(F)(F)F)cc2C1)[C@@H]1COCc2[nH]c(=O)c3cc(F)c(F)cc3c21 [Compound 230, (S)—N-(8,9-Difluoro-6-oxo-1,4,5,6-tetrahydro-2H-pyrano[3,4-c]isoquinolin-1-yl)-N-methyl-5-(trifluoromethyl)isoindoline-2-carboxamide]
EC50 (read-out: DE-19bDNA EC50 (uM), inhibition of rcDNA formation in HepDE19 cells (HepG2 derived), Tet-free medium, 7 day incubation, Quantigene 2.0 bDNA readout, top concentration 25 μM): 24 µM

CN(C(=O)Nc1ccc(F)c(C(F)F)c1)[C@@H]1COCc2c1c1cc(F)c(F)cc1c(=O)n2C [Compound 233, (S)-1-(8,9-Difluoro-5-methyl-6-oxo-1,4,5,6-tetrahydro-2H-pyrano[3,4-c]isoquinolin-1-yl)-3-(3-(difluoromethyl)-4-fluorophenyl)-1-methylurea]
pEC50: 7.70

COc1nc2c(c3cc(F)c(F)cc13)[C@H](N(C)C(=O)Nc1ccc(F)c(C(F)F)c1)COC2 [Compound 234, (S)-1-(8,9-Difluoro-6-methoxy-1,4-dihydro-2H-pyrano[3,4-c]isoquinolin-1-yl)-3-(3-(difluoromethyl)-4-fluorophenyl)-1-methylurea]
pEC50: 7.30

CN(C(=O)Nc1ccc(F)c(Cl)c1)C1COCc2nc(NCCN)c3cc(F)c(F)cc3c21 (centres unmarked) [Compound 240]
pEC50: 6.23

CN(C(=O)Nc1ccc(F)c(Cl)c1)[C@@H]1COCc2c1c1cc(F)c(F)cc1c(=O)n2C [Compound 243, (S)-3-(3-Chloro-4-fluorophenyl)-1-(8,9-difluoro-5-methyl-6-oxo-1,4,5,6-tetrahydro-2H-pyrano[3,4-c]isoquinolin-1-yl)-1-methylurea]
pEC50: 7.70

COc1nc2c(c3cc(F)c(F)cc13)[C@H](N(C)C(=O)Nc1ccc(F)c(Cl)c1)COC2 [Compound 244, (S)-3-(3-Chloro-4-fluorophenyl)-1-(8,9-difluoro-6-methoxy-1,4-dihydro-2H-pyrano[3,4-c]isoquinolin-1-yl)-1-methylurea]
pEC50: 7.10

CN(C(=O)Nc1ccc(F)c(C(F)F)c1)[C@@H]1COCc2c1c1cc(F)c(F)cc1c(=O)n2CCO [Compound 251, (S)-1-(8,9-Difluoro-5-(2-hydroxyethyl)-6-oxo-1,4,5,6-tetrahydro-2H-pyrano[3,4-c]isoquinolin-1-yl)-3-(3-(difluoromethyl)-4-fluorophenyl)-1-methylurea]
pEC50: 7.52

CN(C(=O)Nc1ccc(F)c(C(F)F)c1)[C@@H]1COCc2nc(OCCN)c3cc(F)c(F)cc3c21 [Compound 252, (S)-1-(6-(2-Aminoethoxy)-8,9-difluoro-1,4-dihydro-2H-pyrano[3,4-c]isoquinolin-1-yl)-3-(3-(difluoromethyl)-4-fluorophenyl)-1-methylurea]
pEC50: 7.70

CN(C(=O)Nc1ccc(F)c(C(F)F)c1)[C@@H]1COCc2c1c1cc(F)c(F)cc1c(=O)n2CCN [Compound 253, (S)-1-(5-(2-Aminoethyl)-8,9-difluoro-6-oxo-1,4,5,6-tetrahydro-2H-pyrano[3,4-c]isoquinolin-1-yl)-3-(3-(difluoromethyl)-4-fluorophenyl)-1-methylurea]
pEC50: 6.04

CN(C(=O)Nc1ccc(F)c(Cl)c1)[C@@H]1COCc2c1c1cc(F)c(F)cc1c(=O)n2CCO [Compound 254, (S)-3-(3-Chloro-4-fluorophenyl)-1-(8,9-difluoro-5-(2-hydroxyethyl)-6-oxo-1,4,5,6-tetrahydro-2H-pyrano[3,4-c]isoquinolin-1-yl)-1-methylurea]
pEC50: 7.24

CN(C(=O)Nc1ccc(F)c(Cl)c1)[C@@H]1COCc2nc(OCCO)c3cc(F)c(F)cc3c21 [Compound 255, (S)-3-(3-Chloro-4-fluorophenyl)-1-(8,9-difluoro-6-(2-hydroxyethoxy)-1,4-dihydro-2H-pyrano[3,4-c]isoquinolin-1-yl)-1-methylurea]
pEC50: 7.31

CN(C(=O)Nc1ccc(F)c(C(F)F)c1)[C@@H]1COCc2nc(OCCO)c3cc(F)c(F)cc3c21 [Compound 256, (S)-1-(8,9-Difluoro-6-(2-hydroxyethoxy)-1,4-dihydro-2H-pyrano[3,4-c]isoquinolin-1-yl)-3-(3-(difluoromethyl)-4-fluorophenyl)-1-methylurea]
pEC50: 7.72

CN(C(=O)Nc1ccc(F)c(Cl)c1)[C@@H]1COCc2c1c1cc(F)c(F)cc1c(=O)n2CCN [Compound 257, (S)-1-(5-(2-Aminoethyl)-8,9-difluoro-6-oxo-1,4,5,6-tetrahydro-2H-pyrano[3,4-c]isoquinolin-1-yl)-3-(3-chloro-4-fluorophenyl)-1-methylurea]
pEC50: 5.51

CN(C(=O)Nc1ccc(F)c(Cl)c1)[C@@H]1COCc2nc(OCCN)c3cc(F)c(F)cc3c21 [Compound 258, (S)-1-(6-(2-Aminoethoxy)-8,9-difluoro-1,4-dihydro-2H-pyrano[3,4-c]isoquinolin-1-yl)-3-(3-chloro-4-fluorophenyl)-1-methylurea]
pEC50: 7.19
